This series is described as follows: Sedimentation equilibrium analytical ultracentrifugation of aPP variants, monomer-n-mer fit (self-association). The series is classed as physicochemical. The conditions noted are these: for n (stoichiometry of the self-associated complex): monomer-n-mer fit; for n (stoichiometry of the self-associated complex) / lnKA when n = 4 / % monomer at 30 μM: 25° C.; for lnKA when n = 4: monomer-tetramer; for Kd (self-association, tetramer): n = 4, 25° C., calculated from ln KA; for % monomer at 30 μM: 30 μM peptide. The protocol:
Analytical ultracentrifugation experiments were performed using peptide solutions prepared in Tris.Cl buffer (25 mM Tris base, 50 mM NaCl, (pH 8.0)) at the appropriate concentrations (5 micromolar to 200 micromolar). Samples were then centrifuged to equilibrium at 25° C. at 42,000, 50,000, and 60,000 rpm. Data were collected with a 0.001 cm step size and successive scans were initiated at 2 h intervals. Samples were judged to have reached equilibrium when the radial concentration gradient remained unchanged over three successive scans using the Match module of Heteroanalysis software v1.1.19. The solvent density (ρ, rho) and partial specific volume ( ν, nu) were calculated using the Sedimentation Interpretation Program “Sednterp” software v1.08.
The data for each peptide (multiple concentrations at three speeds) was first fit globally to an equation describing the sedimentation of an ideal species of molecular weight Mn (Eq. 1) using Heteroanalysis software v1.1.19:
where C represents the concentration of the sedimenting species at distances r and r0 cm from the center of rotation; ν (nu) is the partial specific volume of the sedimenting species in cc/g; ρ (rho) is the density of the supporting buffer in g/cc; ω (omega) is the angular velocity of the rotor (radians/s); Mn is the “molar” molecular weight of sedimenting species (g/mol); R is the universal gas constant (8.315×10^7 ergs K^−1 mol^−1) and T is the temperature in degrees Kelvin.
In order to quantify this self-association, the data for each peptide was next fit globally to a monomer-n-mer equilibrium model using Eq. 2:
where n is the stoichiometry of the self-associated complex. Errors were calculated for n and lnKA using f-statistics to two standard deviations.
Samples were prepared in PBS buffer and centrifuged at speeds of 42,000 (41), 50,000 (42), or 60,000 RPM (43) at 25° C. Experimental data are shown as points; lines indicate the best fit to a monomer-n-mer model described by Eq. 2.

“GPSQPTAPGDDAPVEDLIRFYDNLQQYLNVVTRHRY [aPP^Y7A]”: the “n (stoichiometry of the self-associated complex)” value was determined as 3.77; the “lnKA when n = 4” value is recorded as “when n = 4 26.28”; the “Kd (self-association, tetramer)” value is on record as 3.9×10^−12 M^3.
For the substance “GPSQPTAPGDDAPVEDLIRFYDNLRQYLNVVTRHRY [aPP^Y7AQ25R]”, the “% monomer at 30 μM” value amounted to 78%; the “n (stoichiometry of the self-associated complex)” value came out at 4.06; the “lnKA when n = 4” value is “when n = 4 29.34”; the “Kd (self-association, tetramer)” value is given as 1.8 × 10^−13 M^3.
Regarding “GPSQPTAPGDDAVPEDLIRFYDNLQQYLNVVTRHRY [aPP^Y7AP13VV14P]”, the “% monomer at 30 μM” value amounted to 90%; the “n (stoichiometry of the self-associated complex)” value was 4.48; the “lnKA when n = 4” value is listed as “when n = 4 27.92”; the “Kd (self-association, tetramer)” value is 7.5 × 10^−13 M^3.
Consider “GPSQPTYPGDDAPVEDLIRAYDNLQQYLNVVTRHRY [aPP^F20A]”, for which the “n (stoichiometry of the self-associated complex)” value is reported as 3.87; the “lnKA when n = 4” value is recorded as “when n = 4 23.29”; the “Kd (self-association, tetramer)” value was 7.6×10^−11 M^3.
Regarding “aPP^Y7AT6E: SEQ ID NO: 8, CPSQPEAPGDDAPVEDLIRFYDNLQQYLNVVTRHRY (Table 1 prints GPSQPE...)”, the “% monomer at 30 μM” value was found to be 79%; the “n (stoichiometry of the self-associated complex)” value worked out at 3.88; the “Kd (self-association, tetramer)” value is given as 2.0 × 10^−13 M^3.

These data come from patent US20100273722A1, “MODIFIED MINIATURE PROTEINS” (Yale University, priority 2007, published 2010).
